From patent publication US20220378923A1, “BET DEGRADER” (KYOWA KIRIN CO., LTD., priority 2019, published 2022)
pIC50: −log10 of the molar value.

Tested on: DCAF16 KO SU-DHL-4 cells
Assay: Inhibitory effect on cell viability using SU-DHL-4 DCAF16 knock out (KO) cell line (Test Example 6)
Type: cell-based, human
Conditions: for Activity Attenuation Ratio: (SU-DHL-4 DCAF16 KO IC50)/(SU-DHL-4 WT IC50); for pIC50: DCAF16 KO SU-DHL-4 cells, 72 hours, Cell Counting Kit-8, 50% inhibition of cell viability
How it was run: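 SU-DHL-4 DLBCL cells carrying lentiviral Cas9 plus DCAF16-targeting sgRNA (three KO strains; non-targeting control strain), seeded 2000 cells/well, pre-cultured 18–25 h, then given 9-step compound dilutions (0.1% DMSO final) for 72 h at 37° C. Viability read by CCK-8 colorimetric assay.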

Compound | pIC50 (Homo sapiens) | pIC50 | Activity Attenuation Ratio
CCC(=O)N1c2ccccc2[C@H](Nc2ccc(NC(=O)CCCC(=O)Nc3ccc(N[C@@H]4C[C@H](C)N(C(=O)CC)c5ccccc54)cc3)cc2)C[C@@H]1C [Compound 6k, N^1,N^5-Bis(4-(((2S,4R)-2-methyl-1-propionyl-1,2,3,4-tetrahydroquinolin-4-yl)amino)phenyl)glutaramide] | 7.51 |  | 520
CCC(=O)N1c2ccccc2[C@H](Nc2ccc(NC(=O)CCCC(=O)NC3CCC(N[C@@H]4C[C@H](C)N(C(=O)CC)c5ccccc54)CC3)cc2)C[C@@H]1C (stereo partly drawn) [Compound 7o, N^1-((1R,4r)-4-(((2S,4R)-2-Methyl-1-propionyl-1,2,3,4-tetrahydroquinolin-4-yl)amino)cyclohexyl)-N^5-(4-(((2S,4R)-2-methyl-1-propionyl-1,2,3,4-tetrahydroquinolin-4-yl)amino)phenyl)glutaramide] |  | 6.40 | 750
CCC(=O)N1c2ccccc2[C@H](Nc2ccc(NC(=O)N3CCN(C(=O)C4CCC(N[C@@H]5C[C@H](C)N(C(=O)CC)c6ccccc65)CC4)CC3)cc2)C[C@@H]1C (stereo partly drawn) [Compound 7p, 4-((1R,4r)-4-(((2S,4R)-2-Methyl-1-propionyl-1,2,3,4-tetrahydroquinolin-4-yl)amino)cyclohexane-1-carbonyl)-N-(4-(((2S,4R)-2-methyl-1-propionyl-1,2,3,4-tetrahydroquinolin-4-yl)amino)phenyl)piperazine-1-carboxamide] |  | 6.53 | 766
CCC(=O)N1c2ccccc2[C@H](Nc2ccc(-c3nnc(CNC(=O)[C@H]4CC[C@H](N[C@@H]5C[C@H](C)N(C(=O)CC)c6ccccc65)CC4)o3)cc2)C[C@@H]1C [Compound 7q, (1R,4R)-4-(((2S,4R)-2-Methyl-1-propionyl-1,2,3,4-tetrahydroquinolin-4-yl)amino)-N-((5-(4-(((2S,4R)-2-methyl-1-propionyl-1,2,3,4-tetrahydroquinolin-4-yl)amino)phenyl)-1,3,4-oxadiazol-2-yl)methyl)cyclohexane-1-carboxamide] |  | 7.10 | 850
CCC(=O)N1c2ccccc2[C@H](Nc2ccc(NC(=O)CNC(=O)N[C@H]3CC[C@H](N[C@@H]4C[C@H](C)N(C(=O)CC)c5ccccc54)CC3)cc2)C[C@@H]1C [Compound 8j, 2-(3-((1R,4R)-4-(((2S,4R)-2-Methyl-1-propionyl-1,2,3,4-tetrahydroquinolin-4-yl)amino)cyclohexyl)ureido)-N-(4-(((2S,4R)-2-methyl-1-propionyl-1,2,3,4-tetrahydroquinolin-4-yl)amino)phenyl)acetamide] |  | 6.64 | 767
CCC(=O)N1c2ccccc2[C@H](Nc2ccc(C(=O)N3CC(C(=O)N[C@H]4CC[C@H](N[C@@H]5C[C@H](C)N(C(=O)CC)c6ccccc65)CC4)C3)cc2)C[C@@H]1C [Compound 8r, 1-(4-(((2S,4R)-2-Methyl-1-propionyl-1,2,3,4-tetrahydroquinolin-4-yl)amino)benzoyl)-N-((1R,4R)-4-(((2S,4R)-2-methyl-1-propionyl-1,2,3,4-tetrahydroquinolin-4-yl)amino)cyclohexyl)azetidine-3-carboxamide] |  | 7.17 | 224
CCC(=O)N1c2ccccc2[C@H](Nc2ccc(NC(=O)CCCC(=O)Nc3ccc(N[C@@H]4C[C@H](C)N(C(=O)CC)c5ccccc54)nc3)cc2)C[C@@H]1C [Compound 10k, N^1-(4-(((2S,4R)-2-Methyl-1-propionyl-1,2,3,4-tetrahydroquinolin-4-yl)amino)phenyl)-N^5-(6-(((2S,4R)-2-methyl-1-propionyl-1,2,3,4-tetrahydroquinolin-4-yl)amino)pyridin-3-yl)glutaramide] | 6.84 |  | 672
CCC(=O)N1c2ccccc2[C@H](Nc2ccc(-c3nnc(CNC(=O)C4CCN(Cc5cc(O)cc(-c6c(C)noc6C)c5)CC4)o3)cc2)C[C@@H]1C [Compound 12a, 1-(3-(3,5-Dimethylisoxazol-4-yl)-5-hydroxybenzyl)-N-((5-(4-(((2S,4R)-2-methyl-1-propionyl-1,2,3,4-tetrahydroquinolin-4-yl)amino)phenyl)-1,3,4-oxadiazol-2-yl)methyl)piperidine-4-carboxamide] | 6.45 |  | 693
CCC(=O)N1c2ccccc2[C@H](Nc2ccc(NC(=O)C3CN(C(=O)C4CCN(Cc5cc(O)cc(-c6c(C)noc6C)c5)CC4)C3)cc2)C[C@@H]1C [Compound 12b, 1-(1-(3-(3,5-Dimethylisoxazol-4-yl)-5-hydroxybenzyl)piperidine-4-carbonyl)-N-(4-(((2S,4R)-2-methyl-1-propionyl-1,2,3,4-tetrahydroquinolin-4-yl)amino)phenyl)azetidine-3-carboxamide] | < 5.00 |  | >3526
CCC(=O)N1c2ccccc2[C@H](Nc2ccc(NC(=O)CCCC(=O)NC3CCN(Cc4cc(O)cc(-c5c(C)noc5C)c4)CC3)cc2)C[C@@H]1C [Compound 12c, N^1-(1-(3-(3,5-Dimethylisoxazol-4-yl)-5-hydroxybenzyl)piperidin-4-yl)-N^5-(4-(((2S,4R)-2-methyl-1-propionyl-1,2,3,4-tetrahydroquinolin-4-yl)amino)phenyl)glutaramide] | < 5.00 |  | >44436

Second part, led by results:

pIC50 (Homo sapiens) | pIC50 | Compound | Activity Attenuation Ratio
8.03 |  | CCC(=O)N1c2ccccc2[C@H](Nc2ccc(SCCNC(=O)c3ccc(C4=N[C@@H](CC(=O)OCCN(C)C)c5nnc(C)n5-c5sc(C)c(C)c54)cc3)cc2)C[C@@H]1C [Compound 13a, 2-(Dimethylamino)ethyl 2-((S)-2,3,9-trimethyl-4-(4-((2-((4-(((2S,4R)-2-methyl-1-propionyl-1,2,3,4-tetrahydroquinolin-4-yl)amino)phenyl)thio)ethyl)carbamoyl)phenyl)-6H-thieno[3,2-f][1,2,4]triazolo[4,3-a][1,4]diazepin-6-yl)acetate] | 35
 | 7.56 | CCC(=O)N1c2ccccc2[C@H](Nc2ccc(C(=O)NCCCNC(=O)c3ccc(C4=N[C@@H](CC(=O)OC5CCC(O)CC5)c5nnc(C)n5-c5sc(C)c(C)c54)cc3)cc2)C[C@@H]1C (stereo partly drawn) [Compound 13d, 4-Hydroxycyclohexyl 2-((S)-2,3,9-trimethyl-4-(4-((3-(4-(((2S,4R)-2-methyl-1-propionyl-1,2,3,4-tetrahydroquinolin-4-yl)amino)benzamide)propyl)carbamoyl)phenyl)-6H-thieno[3,2-f][1,2,4]triazolo[4,3-a][1,4]diazepin-6-yl)acetate] | 52
 | 7.64 | CCC(=O)N1c2ccccc2[C@H](Nc2ccc(C(=O)NCCCNC(=O)c3ccc(C4=N[C@@H](CC(=O)OCCCOC)c5nnc(C)n5-c5sc(C)c(C)c54)cc3)cc2)C[C@@H]1C [Compound 13h, 3-Methoxypropyl 2-((S)-2,3,9-trimethyl-4-(4-((3-(4-(((2S,4R)-2-methyl-1-propionyl-1,2,3,4-tetrahydroquinolin-4-yl)amino)benzamide)propyl)carbamoyl)phenyl)-6H-thieno[3,2-f][1,2,4]triazolo[4,3-a][1,4]diazepin-6-yl)acetate] | 76
8.40 |  | CCC(=O)N1c2ccccc2[C@H](Nc2ccc(-c3cnn(CC(=O)Nc4ccc(C5=NCc6nnc(C)n6-c6sc(C)c(C)c65)cc4)c3)cc2)C[C@@H]1C [Compound 14a, 2-(4-(4-(((2S,4R)-2-Methyl-1-propionyl-1,2,3,4-tetrahydroquinolin-4-yl)amino)phenyl)-1H-pyrazol-1-yl)-N-(4-(2,3,9-trimethyl-6H-thieno[3,2-f][1,2,4]triazolo[4,3-a][1,4]diazepin-4-yl)phenyl)acetamide] | 228
8.02 |  | CCC(=O)N1c2ccccc2[C@H](Nc2ccc(NC(=O)COCC(=O)Nc3ccc(C4=NCc5nnc(C)n5-c5sc(C)c(C)c54)cc3)cc2)C[C@@H]1C [Compound 14d, N-(4-(((2S,4R)-2-Methyl-1-propionyl-1,2,3,4-tetrahydroquinolin-4-yl)amino)phenyl)-2-(2-oxo-2-((4-(2,3,9-trimethyl-6H-thieno[3,2-f][1,2,4]triazolo[4,3-a][1,4]diazepin-4-yl)phenyl)amino)ethoxy)acetamide] | 96
7.17 |  | Cc1sc2c(c1C)C(c1ccc(NC(=O)C#CCNC(=O)c3ccc(C4=NCc5nnc(C)n5-c5sc(C)c(C)c54)cc3)cc1)=NCc1nnc(C)n1-2 [Compound 14e, N-(4-Oxo-4-((4-(2,3,9-trimethyl-6H-thieno[3,2-f][1,2,4]triazolo[4,3-a][1,4]diazepin-4-yl)phenyl)amino)but-2-yn-1-yl)-4-(2,3,9-trimethyl-6H-thieno[3,2-f][1,2,4]triazolo[4,3-a][1,4]diazepin-4-yl)benzamide] | 332
8.53 |  | CCC(=O)N1c2ccccc2[C@H](Nc2ccc(NC(=O)CNC(=O)Nc3ccc(C4=NCc5nnc(C)n5-c5sc(C)c(C)c54)cc3)cc2)C[C@@H]1C [Compound 14f, N-(4-(((2S,4R)-2-Methyl-1-propionyl-1,2,3,4-tetrahydroquinolin-4-yl)amino)phenyl)-2-(3-(4-(2,3,9-trimethyl-6H-thieno[3,2-f][1,2,4]triazolo[4,3-a][1,4]diazepin-4-yl)phenyl)ureido)acetamide] | 22
6.39 |  | Cc1sc2c(c1C)C(c1ccc(C(=O)N3CCC(NC(=O)c4ccc(C5=N[C@@H](CC(=O)OC(C)(C)C)c6nnc(C)n6-c6sc(C)c(C)c65)cc4)CC3)cc1)=NCc1nnc(C)n1-2 [Compound 14p, tert-Butyl (S)-2-(2,3,9-trimethyl-4-(4-((1-(4-(2,3,9-trimethyl-6H-thieno[3,2-f][1,2,4]triazolo[4,3-a][1,4]diazepin-4-yl)benzoyl)piperidin-4-yl)carbamoyl)phenyl)-6H-thieno[3,2-f][1,2,4]triazolo[4,3-a][1,4]diazepin-6-yl)acetate] | 408
